Assay results reported in patent US4264590A, “Antibacterial peptide” (Abbott Laboratories, priority 1980, dated 1981).
Several values for one entry are separate records, joined by “and”; a condition that tells them apart may be missing. Equal entries are not always repeated. Blank lines part the entries; values can stand above or below the compound they belong to.

What was measured:
[1] = test system: Strep. pyrogenes (C 203); assay: mouse protection test, CD50 (Table III); format: in vivo
Experimental: (§1) Charles River mice, weighing approximately 20 g. each, are infected intraperitoneally with 10-100 times the LD of the infecting organism. At predetermined intervals post-infection, e.g., 1 and 5 hours, mice are dosed subcutaneously with graded doses of the halogenated peptide, antibiotic and combination thereof. The number of mice surviving each treatment for 7 days post-infection is observed and the CD50 is calculated. The fractional inhibitory concentration (F.I.C.) for each combination is calculated in the usual manner.
(§2) In this table, the following infecting microorganisms were used:
Strep. pyrogenes (C 203).
(§3) The infecting organisms are listed by the above code; the compounds are listed by their Example number. In all instances, the dipeptide and D-cycloserine were tested at a ratio of 10:1. The CD50 combination column lists only the amount of peptide present; the D-cycloserine amount is 10% of the listed amount.

[2] = test system: E. coli (305-101); assay: mouse protection test, CD50 (Table III); format: in vivo
Experimental: as §1, §2, §3

[3] = test system: E. coli 6880; assay: two-fold agar dilution assay, M.I.C.; format: cell-based; conditions: for MIC: Escherichia coli, substance alone, agar dilution, read-out: minimum inhibitory concentration (M.I.C.)
Excerpt: (§4) In a two-fold agar dilution assay with E. coli (Juhl) and E. coli 6880 as test organisms, compounds of Examples 1 and 2 show a minimum inhibitory concentration (M.I.C.) of >800 ppm. […] The combination of the new peptide with D-cycloserine produces the following M.I.C. test results.

[4] = test system: E. coli (Juhl); assay: two-fold agar dilution assay, M.I.C.; format: cell-based; conditions: for MIC: Escherichia coli, substance alone, agar dilution, read-out: minimum inhibitory concentration (M.I.C.)
Excerpt: as §4

[5] = test system: E. coli (Juhl); assay: serial dilution in synthetic medium in test tubes, MIC and F.I.C. index (Table II); format: cell-based; conditions: for MIC: Escherichia coli
Experimental: The halogenated peptides alone, the antibiotic alone or mixtures of the halogenated peptides and selected antibiotics are prepared in sterile concentrated aqueous solutions at the desired ratios. Serial dilutions are made to give a range of concentrations of the test substances. Samples of the dilutions are mixed with an appropriate sterile synthetic medium in test tubes. The tubes are then inoculated with an appropriate test organism and incubated at 35°-37° C. for 16-20 hours. Minimum inhibitory concentrations, i.e., that concentration which inhibits visible growth, are read and the fractional inhibitory concentration indices (F.I.C.) are calculated. In all instances, E. coli (Juhl) was used as the infecting microorganism.

[6] = test system: S. aureus (Smith); assay: mouse protection test, CD50 (Table III); format: in vivo; conditions: for F.I.C. Index / CD50 (mg/kg) Combination: S. aureus (Smith) in mice, dipeptide:D-cycloserine 10:1; for CD50 (mg/kg) Combination: amount of peptide only listed, D-cycloserine is 10% of it; for CD50 (mg/kg) Peptide: mice infected i.p. with S. aureus (Smith), dosed subcutaneously, 7 days survival, peptide alone
Experimental: as §1, §2, §3

[7] = test system: E. coli (Juhl); assay: mouse protection test, CD50 (Table III); format: in vivo
Experimental: as §1, §2, §3

[8] = combination with D-cycloserine, ratio Pep/Antib. 1:1, read-out: MIC ppm Pep/Antib., peptide part
[9] = combination with D-cycloserine, ratio Pep/Antib. 1:8, read-out: MIC ppm Pep/Antib., peptide part
[10] = peptide alone, E. coli (Juhl), 35-37° C., 16-20 hours, read-out: MIC ppm Peptide
[11] = combination with D-cycloserine, ratio Pep/Antib. 1:1
[12] = combination with D-cycloserine, ratio Pep/Antib. 1:8
[13] = combination with D-cycloserine, ratio Pep/Antib. 8:1
[14] = peptide:D-cycloserine ratio 1:1
[15] = peptide:D-cycloserine ratio 1:8
[16] = peptide:D-cycloserine ratio 8:1
[17] = combination with cephalothin, ratio Pep/Antib. 1:1
[18] = combination with carbencillin, ratio Pep/Antib. 1:1
[19] = combination with carbencillin, ratio Pep/Antib. 1:8
[20] = peptide alone, E. coli (Juhl), 35-37° C., 16-20 hours

Compound: N[C@@H]1CON=C1O [D-cycloserine, reference compound]
- CD50 (mg/kg) Cycloserine ([1]; mice infected i.p. with Strep. pyrogenes (C 203), dosed subcutaneously, 7 days survival, D-cycloserine alone): > 100 mg/kg
- CD50 (mg/kg) Cycloserine ([2]; mice infected i.p. with E. coli (305-101), dosed subcutaneously, 7 days survival, D-cycloserine alone): 63 mg/kg
- MIC [3]: 6.2 µg/mL
- MIC [4]: 12.5 µg/mL

Compound: Br.C[C@H](N)C(=O)N[C@H](CF)C(=O)O [Example 1, L-alanyl-β-fluoro-D-alanine hydrobromide]
- MIC [5, 8]: 0.2 µg/mL
- MIC [5, 9]: 0.2 µg/mL
- MIC ([5]; combination with D-cycloserine, ratio Pep/Antib. 8:1, read-out: MIC ppm Pep/Antib., peptide part): 0.39 µg/mL
- MIC [5, 10]: > 800 µg/mL
- F.I.C. Index [5, 11]: 0.02
- MIC ppm Pep/Antib., antibiotic part [5, 11]: 0.2 ppm
- F.I.C. Index [5, 12]: 0.12
- MIC ppm Pep/Antib., antibiotic part [5, 12]: 1.56 ppm
- F.I.C. Index [5, 13]: 0.004
- MIC ppm Pep/Antib., antibiotic part [5, 13]: 0.05 ppm
- F.I.C. Index ([1]; Strep. pyrogenes (C 203) in mice, dipeptide:D-cycloserine 10:1): 0.60
- CD50 (mg/kg) Combination ([1]; Strep. pyrogenes (C 203) in mice, dipeptide:D-cycloserine 10:1, amount of peptide only listed, D-cycloserine is 10% of it): 10.9 mg/kg
- CD50 (mg/kg) Peptide ([1]; mice infected i.p. with Strep. pyrogenes (C 203), dosed subcutaneously, 7 days survival, peptide alone): 17.8 mg/kg
- F.I.C. Index ([2]; E. coli (305-101) in mice, dipeptide:D-cycloserine 10:1): 0.90
- CD50 (mg/kg) Combination ([2]; E. coli (305-101) in mice, dipeptide:D-cycloserine 10:1, amount of peptide only listed, D-cycloserine is 10% of it): 25 mg/kg
- CD50 (mg/kg) Peptide ([2]; mice infected i.p. with E. coli (305-101), dosed subcutaneously, 7 days survival, peptide alone): 26 mg/kg
- F.I.C. Index [6]: < 0.37
- CD50 (mg/kg) Combination [6]: < 3.1 mg/kg
- CD50 (mg/kg) Peptide [6]: 9.2 mg/kg
- MIC [3]: > 800 µg/mL
- M.I.C. of combination, D-cycloserine part [3, 14]: 0.1 ppm
- M.I.C. of combination, peptide part [3, 14]: 0.1 ppm
- M.I.C. of combination, D-cycloserine part [3, 15]: 0.78 ppm
- M.I.C. of combination, peptide part [3, 15]: 0.1 ppm
- M.I.C. of combination, D-cycloserine part [3, 16]: 0.05 ppm
- M.I.C. of combination, peptide part [3, 16]: 0.39 ppm
- MIC [4]: > 800 µg/mL
- M.I.C. of combination, D-cycloserine part [4, 14]: 0.2 ppm
- M.I.C. of combination, peptide part [4, 14]: 0.2 ppm
- M.I.C. of combination, D-cycloserine part [4, 15]: 1.56 ppm
- M.I.C. of combination, peptide part [4, 15]: 0.2 ppm
- M.I.C. of combination, D-cycloserine part [4, 16]: 0.05 ppm
- M.I.C. of combination, peptide part [4, 16]: 0.39 ppm

Compound: C[C@H](N)C(=O)N[C@H](CCl)C(=O)O [Example 2, L-alanyl-β-chloro-D-alanine]
- MIC [5, 8]: 0.78 µg/mL
- MIC [5, 9]: 0.2 µg/mL
- MIC ([5]; combination with cephalothin, ratio Pep/Antib. 1:1, read-out: MIC ppm Pep/Antib., peptide part): 3.1 µg/mL
- MIC [5, 10]: > 800 µg/mL
- F.I.C. Index [5, 11]: 0.06
- MIC ppm Pep/Antib., antibiotic part [5, 11]: 0.78 ppm
- F.I.C. Index [5, 12]: 0.12
- MIC ppm Pep/Antib., antibiotic part [5, 12]: 1.56 ppm
- F.I.C. Index [5, 17]: 0.50
- MIC ppm Pep/Antib., antibiotic part [5, 17]: 3.1 ppm
- F.I.C. Index [6]: 0.34
- CD50 (mg/kg) Combination [6]: 35 mg/kg
- CD50 (mg/kg) Peptide [6]: 170 mg/kg
- MIC [3]: > 800 µg/mL
- M.I.C. of combination, D-cycloserine part [3, 14]: 0.78 ppm
- M.I.C. of combination, peptide part [3, 14]: 0.78 ppm
- M.I.C. of combination, D-cycloserine part [3, 15]: 0.78 ppm
- M.I.C. of combination, peptide part [3, 15]: 0.1 ppm
- M.I.C. of combination, D-cycloserine part [3, 16]: 0.39 ppm
- M.I.C. of combination, peptide part [3, 16]: 3.1 ppm
- MIC [4]: > 800 µg/mL
- M.I.C. of combination, D-cycloserine part [4, 14]: 0.78 ppm
- M.I.C. of combination, peptide part [4, 14]: 0.78 ppm
- M.I.C. of combination, D-cycloserine part [4, 15]: 1.56 ppm
- M.I.C. of combination, peptide part [4, 15]: 0.2 ppm
- M.I.C. of combination, D-cycloserine part [4, 16]: 0.78 ppm
- M.I.C. of combination, peptide part [4, 16]: 0.62 ppm

Compound: CC(C)[C@H](N)C(=O)N[C@H](CF)C(=O)O [Example 3, L-Val-βF-D-Ala]
- F.I.C. Index [6]: 0.15
- CD50 (mg/kg) Combination [6]: 1.0 mg/kg
- CD50 (mg/kg) Peptide [6]: 10 mg/kg

- MIC ppm Pep/Antib., antibiotic part [5, 11]: 0.1 ppm
- MIC ppm Pep/Antib., peptide part [5, 11]: 0.1 ppm
- MIC ppm Pep/Antib., antibiotic part [5, 12]: 0.78 ppm
- MIC ppm Pep/Antib., peptide part [5, 12]: 0.1 ppm
- MIC ppm Pep/Antib., antibiotic part [5, 18]: 1.56 ppm
- MIC ppm Pep/Antib., peptide part [5, 18]: 1.56 ppm
- MIC ppm Pep/Antib., antibiotic part [5, 19]: 12.5 ppm
- MIC ppm Pep/Antib., peptide part [5, 19]: 1.56 ppm
- MIC ppm Peptide [5, 20]: > 200 ppm and > 100 ppm
Compound: CC(C)C[C@H](N)C(=O)N[C@H](CF)C(=O)O [Example 4, L-Leu-βF-D-Ala]
- F.I.C. Index [5, 11]: 0.008
- F.I.C. Index [5, 12]: 0.06
- F.I.C. Index [5, 18]: 0.25
- F.I.C. Index [5, 19]: 2.0
- F.I.C. Index ([7]; E. coli (Juhl) in mice, dipeptide:D-cycloserine 10:1): 0.41
- CD50 (mg/kg) Combination ([7]; E. coli (Juhl) in mice, dipeptide:D-cycloserine 10:1, amount of peptide only listed, D-cycloserine is 10% of it): 10.1 mg/kg
- CD50 (mg/kg) Peptide ([7]; mice infected i.p. with E. coli (Juhl), dosed subcutaneously, 7 days survival, peptide alone): 25.9 mg/kg
- F.I.C. Index [6]: 0.25
- CD50 (mg/kg) Combination [6]: 1.6 mg/kg
- CD50 (mg/kg) Peptide [6]: 7.4 mg/kg

Compound: N[C@@H](Cc1ccccc1)C(=O)N[C@H](CF)C(=O)O [Example 5, L-Phe-βF-D-Ala]
- F.I.C. Index [6]: 0.99
- CD50 (mg/kg) Combination [6]: 13.6 mg/kg
- CD50 (mg/kg) Peptide [6]: 14.4 mg/kg

Compound: NCCCC[C@H](N)C(=O)N[C@H](CF)C(=O)O [Example 6, L-Lys-βF-D-Ala]
- F.I.C. Index [6]: 0.08 and 0.13
- CD50 (mg/kg) Combination [6]: 6.8 mg/kg and 4.0 mg/kg

Compound: O=C(N[C@H](CF)C(=O)O)[C@@H]1CCCN1 [Example 7, L-Pro-βF-D-Ala]
- F.I.C. Index [6]: 0.35
- CD50 (mg/kg) Combination [6]: 3.7 mg/kg
- CD50 (mg/kg) Peptide [6]: 12.2 mg/kg

Compound: N[C@@H](CO)C(=O)N[C@H](CF)C(=O)O [Example 8, L-Ser-βF-D-Ala]
- F.I.C. Index [5, 11]: 0.008
- MIC ppm Pep/Antib., antibiotic part [5, 11]: 0.1 ppm
- MIC ppm Pep/Antib., peptide part [5, 11]: 0.1 ppm
- F.I.C. Index [5, 12]: 0.03
- MIC ppm Pep/Antib., antibiotic part [5, 12]: 0.39 ppm
- MIC ppm Pep/Antib., peptide part [5, 12]: 0.05 ppm
- F.I.C. Index [5, 13]: 0.004
- MIC ppm Pep/Antib., antibiotic part [5, 13]: 0.05 ppm
- MIC ppm Pep/Antib., peptide part [5, 13]: 0.39 ppm
- MIC ppm Peptide [5, 20]: > 800 ppm
- F.I.C. Index [6]: 0.13
- CD50 (mg/kg) Combination [6]: 5.2 mg/kg
- CD50 (mg/kg) Peptide [6]: 48 mg/kg
